In the case of Cc1nc(-n2ccc(-c3ccccc3)cc2=O)sc1C(=O)NCc1ccccc1 [Example 1, N-benzyl-4-methyl-2-(2-oxo-4-phenylpyridin-1(2H)-yl)thiazole-5-carboxamide], the melting point is reported as 235 to 237 °C.
Compound Cc1nc(-n2ccc(OCCC3CC3)cc2=O)sc1C(=O)NCc1ccccc1 [Example 1.3, N-Benzyl-2-(4-(2-cyclopropylethoxy)-2-oxopyridin-1(2H)-yl)-4-methylthiazole-5-carboxamide] has a melting point of 172 to 174 °C.
Cc1nc(-n2ccc(OCCC3CC3)cc2=O)sc1C(=O)NCc1ccc(F)cc1 [Example 1.4, 2-(4-(2-Cyclopropylethoxy)-2-oxopyridin-1(2H)-yl)-N-(4-fluorobenzyl)-4-methylthiazole-5-carboxamide] showed a melting point of 172 to 174 °C.
Compound Cc1nc(-n2ccc(OCCC3CC3)cc2=O)sc1C(=O)NCc1cccnc1 [Example 1.5, 2-(4-(2-Cyclopropylethoxy)-2-oxopyridin-1(2H)-yl)-4-methyl-N-(pyridin-3-ylmethyl)thiazole-5-carboxamide] has a melting point of 170 to 172 °C.
Work on Cc1nc(-n2ccc(O)cc2=O)sc1C(=O)NCc1ccc(F)cc1 [Example 1.6, N-(4-Fluorobenzyl)-2-(4-hydroxy-2-oxopyridin-1(2H)-yl)-4-methylthiazole-5-carboxamide] yielded a melting point of 280 to 282 °C.
Cc1nc(-n2ccc(OCc3ccccc3)cc2=O)[nH]c1C(=O)NCc1cccnc1 [Example 1.8, 2-(4-(Benzyloxy)-2-oxopyridin-1(2H)-yl)-4-methyl-N-(pyridin-3-ylmethyl)-1H-imidazole-5-carboxamide] showed a melting point of 203 to 204 °C.
With Cc1nc(-n2ccc(OCc3ccccc3)cc2=O)n(C)c1C(=O)NCc1ccccc1 [Example 1.9, N-Benzyl-2-(4-(benzyloxy)-2-oxopyridin-1(2H)-yl)-1,4-dimethyl-1H-imidazole-5-carboxamide] the melting point was 232 to 233 °C.
For Cc1c(C(=O)NCc2ccccc2)nc(-n2ccc(OCc3ccccc3)cc2=O)n1C [Example 1.10, N-Benzyl-2-(4-(benzyloxy)-2-oxopyridin-1(2H)-yl)-1,5-dimethyl-1H-imidazole-4-carboxamide], the melting point was 190 to 191 °C.
Work on COc1ccn(-c2nc(C)c(C(=O)NCc3cccnc3)s2)c(=O)c1 [Example 1.11, 2-(4-Methoxy-2-oxopyridin-1(2H)-yl)-4-methyl-N-(pyridin-3-ylmethyl)thiazole-5-carboxamide] yielded a melting point of 200 to 202 °C.
Work on Cc1nc(-n2ccc(OCc3ccc(C(F)(F)F)o3)cc2=O)sc1C(=O)NCc1cccnc1 [Example 1.12, 4-Methyl-2-(2-oxo-4-((5-(trifluoromethyl)furan-2-yl)methoxy)pyridin-1(2H)-yl)-N-(pyridin-3-ylmethyl)thiazole-5-carboxamide] yielded a melting point of 240 to 242 °C.
Cc1nc(-n2ccc(OCc3ccc(F)cc3)cc2=O)sc1C(=O)NCc1cccnc1 [Example 1.13, 2-(4-(4-Fluorobenzyloxy)-2-oxopyridin-1(2H)-yl)-4-methyl-N-(pyridin-3-ylmethyl)thiazole-5-carboxamide] gave a melting point of 231 to 233 °C.
Compound Cc1nc(-n2ccc(OCc3ccc(F)cc3)cc2=O)sc1C(=O)NCc1ccc(F)cc1 [Example 1.14, N-(4-Fluorobenzyl)-2-(4-(4-fluorobenzyloxy)-2-oxopyridin-1(2H)-yl)-4-methylthiazole-5-carboxamide] has a melting point of 249 to 251 °C.
With Cc1nc(-n2ccc(O)cc2=O)sc1C(=O)NCc1cccc(F)c1 [Example 1.15, N-(3-Fluorobenzyl)-2-(4-hydroxy-2-oxopyridin-1(2H)-yl)-4-methylthiazole-5-carboxamide] the melting point was 250 to 252 °C.
Work on Cc1nc(-n2ccc(O)cc2=O)sc1C(=O)NCC1CC1 [Example 1.16, N-(Cyclopropylmethyl)-2-(4-hydroxy-2-oxopyridin-1(2H)-yl)-4-methylthiazole-5-carboxamide] yielded a melting point of 240 to 242 °C.
In the case of Cc1nc(-n2ccc(O)cc2=O)sc1C(=O)NCCC1CC1 [Example 1.17, N-(2-Cyclopropylethyl)-2-(4-hydroxy-2-oxopyridin-1(2H)-yl)-4-methylthiazole-5-carboxamide], the melting point is reported as 234 to 236 °C.
With Cc1nc(-n2ccc(O)cc2=O)sc1C(=O)NCCc1ccc(F)cc1 [Example 1.18, N-(4-Fluorophenethyl)-2-(4-hydroxy-2-oxopyridin-1(2H)-yl)-4-methylthiazole-5-carboxamide] the melting point was 225 to 227 °C.
Compound Cc1nc(-n2ccc(O)cc2=O)sc1C(=O)NCc1ccc(F)c(F)c1 [Example 1.19, N-(3,4-Difluorobenzyl)-2-(4-hydroxy-2-oxopyridin-1(2H)-yl)-4-methylthiazole-5-carboxamide] has a melting point of 294 to 296 °C.
For Cc1nc(-n2ccc(O)cc2=O)sc1C(=O)NCc1ccncc1 [Example 1.20, 2-(4-Hydroxy-2-oxopyridin-1(2H)-yl)-4-methyl-N-(pyridin-4-ylmethyl)thiazole-5-carboxamide], the melting point was 275 to 278 °C.
Work on Cc1cc(-n2ccc(OCc3ccccc3)cc2=O)sc1C(=O)NCc1cccnc1 [Example 1.23, 5-(4-(Benzyloxy)-2-oxopyridin-1(2H)-yl)-3-methyl-N-(pyridin-3-ylmethyl)thiophene-2-carboxamide] yielded a melting point of 165 to 167 °C.
With Cc1nc(-n2ccc(OCc3ccc(F)cc3)cc2=O)sc1C(=O)NCc1ccccc1 [Example 1.24, N-Benzyl-2-(4-(4-fluorobenzyloxy)-2-oxopyridin-1(2H)-yl)-4-methylthiazole-5-carboxamide] the melting point was 243 to 245 °C.
In the case of Cc1nc(-n2ccc(OCc3ccccc3)cc2=O)sc1C(=O)NCc1ccccc1 [Example 2, N-Benzyl-2-(4-(benzyloxy)-2-oxopyridin-1(2H)-yl)-4-methylthiazole-5-carboxamide], the melting point is reported as 219 to 220 °C.
In the case of Cc1nc(-n2ccc(N)cc2=O)sc1C(=O)NCc1ccccc1 [Example 3, 2-(4-Amino-2-oxopyridin-1(2H)-yl)-N-benzyl-4-methylthiazole-5-carboxamide], the melting point is reported as 171 to 172 °C.
Work on Cc1nc(-n2ccnc(C)c2=O)sc1C(=O)NCc1ccccc1 [Example 3.1, N-Benzyl-4-methyl-2-(3-methyl-2-oxopyrazin-1(2H)-yl)thiazole-5-carboxamide] yielded a melting point of 186 to 187 °C.
In the case of Cc1nc(-n2cc(OCc3ccccc3)ccc2=O)sc1C(=O)NCc1ccccc1 [Example 3.2, N-Benzyl-2-(5-(benzyloxy)-2-oxopyridin-1(2H)-yl)-4-methylthiazole-5-carboxamide], the melting point is reported as 166 to 167 °C.
Work on Cc1nc(-n2cc(Cl)ccc2=O)sc1C(=O)NCc1ccccc1 [Example 3.3, N-Benzyl-2-(5-chloro-2-oxopyridin-1(2H)-yl)-4-methylthiazole-5-carboxamide] yielded a melting point of 173 to 174 °C.
In the case of Cc1nc(-n2cc(C(F)(F)F)ccc2=O)sc1C(=O)NCc1ccccc1 [Example 3.4, N-Benzyl-4-methyl-2-(2-oxo-5-(trifluoromethyl)pyridin-1(2H)-yl)thiazole-5-carboxamide], the melting point is reported as 148 to 149 °C.
In the case of Cc1nc(-n2ccc(C(F)(F)F)cc2=O)sc1C(=O)NCc1ccccc1 [Example 3.6, N-Benzyl-4-methyl-2-(2-oxo-4-(trifluoromethyl)pyridin-1(2H)-yl)thiazole-5-carboxamide], the melting point is reported as 197 to 198 °C.
Compound Cc1nc(-n2cccc(OCc3ccccc3)c2=O)sc1C(=O)NCc1ccccc1 [Example 3.7, N-Benzyl-2-(3-(benzyloxy)-2-oxopyridin-1(2H)-yl)-4-methylthiazole-5-carboxamide] has a melting point of 198 to 201 °C.
Compound Cc1nc(-n2ccc3c(OCc4ccccc4)cccc3c2=O)sc1C(=O)NCc1ccccc1 [Example 3.8, N-Benzyl-2-(5-(benzyloxy)-1-oxoisoquinolin-2(1H)-yl)-4-methylthiazole-5-carboxamide] has a melting point of 225 to 226 °C.
With Cc1nc(-n2c(=O)ccc3cc(OCc4ccccc4)ccc32)sc1C(=O)NCc1ccccc1 [Example 3.9, N-Benzyl-2-(6-(benzyloxy)-2-oxoquinolin-1(2H)-yl)-4-methylthiazole-5-carboxamide] the melting point was 213 to 216 °C.
For Cc1nc(-n2ccccc2=O)sc1C(=O)NCc1ccccc1 [Example 3.10, N-Benzyl-4-methyl-2-(2-oxopyridin-1(2H)-yl)thiazole-5-carboxamide], the melting point was 180 to 182 °C.
In the case of Cc1nc(-n2ccc(OCc3ccccc3)cc2=O)sc1C(=O)NCc1ccc(F)cc1 [Example 3.12, 2-(4-(Benzyloxy)-2-oxopyridin-1(2H)-yl)-N-(4-fluorobenzyl)-4-methylthiazole-5-carboxamide], the melting point is reported as 223 to 225 °C.
For Cc1nc(-n2ccc(C(=O)Nc3ccccc3)cc2=O)sc1C(=O)NCc1ccccc1 [Example 3.13, N-Benzyl-4-methyl-2-(2-oxo-4-(phenylcarbamoyl)pyridin-1(2H)-yl)thiazole-5-carboxamide], the melting point was 243 to 245 °C.
With Cc1nc(-n2cccc(C(=O)Nc3ccccc3)c2=O)sc1C(=O)NCc1ccccc1 [Example 3.14, N-Benzyl-4-methyl-2-(2-oxo-3-(phenylcarbamoyl)pyridin-1(2H)-yl)thiazole-5-carboxamide] the melting point was 225 to 227 °C.
In the case of Cc1nc(-n2cc(C(=O)Nc3ccccc3)ccc2=O)sc1C(=O)NCc1ccccc1 [Example 3.15, N-Benzyl-4-methyl-2-(2-oxo-5-(phenylcarbamoyl)pyridin-1(2H)-yl)thiazole-5-carboxamide], the melting point is reported as 223 to 225 °C.
With Cc1nc(-n2ccccc2=O)sc1C(=O)NCc1cccnc1 [Example 3.16, 4-Methyl-2-(2-oxopyridin-1(2H)-yl)-N-(pyridin-3-ylmethyl)thiazole-5-carboxamide] the melting point was 218 to 220 °C.
Cc1nc(-n2ccc(OCc3ccccc3)cc2=O)sc1C(=O)NCc1ccc(F)c(F)c1 [Example 3.17, 2-(4-(Benzyloxy)-2-oxopyridin-1(2H)-yl)-N-(3,4-difluorobenzyl)-4-methylthiazole-5-carboxamide] gave a melting point of 225 to 227 °C.
In the case of Cc1nc(-n2ccc(COc3ccccc3)cc2=O)sc1C(=O)NCc1ccccc1 [Example 3.18, N-Benzyl-4-methyl-2-(2-oxo-4-(phenoxymethyl)pyridin-1(2H)-yl)thiazole-5-carboxamide], the melting point is reported as 175 to 177 °C.
Cc1cc(-n2ccc(OCc3ccccc3)cc2=O)sc1C(=O)NCc1ccc(F)cc1 [Example 3.21, 5-(4-(Benzyloxy)-2-oxopyridin-1(2H)-yl)-N-(4-fluorobenzyl)-3-methylthiophene-2-carboxamide] showed a melting point of 175 to 177 °C.

From patent US8501746B2, “Organic compounds” (Xenon Pharmaceuticals Inc., priority 2006, dated 2013)
